# Laboratory results reported in patent US20250032651A1, “[177LU] LUTETIUM-PSMA I&T COMPOSITION AND DOSIMETRY, KIT, METHOD OF MAKING, AND METHOD OF USING THEREOF” (Curium US LLC, priority 2022, published 2025).
# Where “and” joins values, the source holds several entries; their conditions need not be identical. Equal entries are not always repeated.
# Assay: Plasma PK: gamma-counted plasma radioactivity, bi-exponential fit
# Assay type: in vivo, human
# Settings: plasma
# Method: Additionally, for PK assessment, whole blood samples were collected at six timepoints (Pre-Infusion, 1 h, 4 h, 24 h, 48 h, and 168 h) and processed to extract plasma. All plasma samples were gamma counted locally for analysis of pharmacokinetics.
# PK plasma samples were collected at pre-Infusion, 1 h, 4 h, 24 h, 48 h, and 168 h, and counted for radioactivity. Blood samples were first centrifuged to extract plasma, and then the radioactivity in plasma was counted in a gamma counter.
# Whole blood samples were collected as detailed in the protocol Schedule of Events i.e. pre-injection, and then at 1 h, 4 h, 24 h, 48 h, and 168 h post-injection. The samples were first centrifuged to separate plasma, and the radioactivity in the plasma was then measured using a gamma counter. Plasma concentrations were subsequently fitted with a bi-exponential function to derive outcome parameters such as the half-life and clearance rate of the radiopharmaceutical in the plasma.
# [1] = Cycle 3, individual patient values
structure (smiles),measurement,setting,value
"O=C([O-])CC[C@H](NC(=O)N[C@@H](CCCCNC(=O)CCCCCCC(=O)NCCCC[C@@H](NC(=O)[C@@H](Cc1ccccc1)NC(=O)[C@@H](Cc1ccc(O)c(I)c1)NC(=O)CC[C@H](C(=O)[O-])N1CCN(CC(=O)[O-])CCN(CC(=O)[O-])CCN(CC(=O)[O-])CC1)C(=O)[O-])C(=O)[O-])C(=O)[O-].[177Lu+3].[H+].[H+].[H+].[H+].[H+] [^177Lu-PSMA I&T, (3S,7S,26R,29R,32R,37R)-29-benzyl-32-(4-hydroxy-3-iodobenzyl)-5,13,20,28,31,34-hexaoxo-37-(4,7,10-tris(carboxymethyl)-1,4,7,10-tetraazacyclododecan-1-yl)-4,6,12,21,27,30,33-heptaazaheptatriacontane-1,3,7,26,37-pentacarboxylic acid; lutetium-177 (III)]",AUC Total,"Cycle 1, min",3.07 fIA/L × min
same,Clearance Rate,"Cycle 1, min",2.89 L/h
same,Peak Concentration Value,"Cycle 1, min",0.01 fIA/L
same,Time of Peak Concentration,"Cycle 1, min",33.00 min
same,Vc,"Cycle 1, min",9.92 L
same,Vd,"Cycle 1, min",54.60 L
same,AUC Total,"Cycle 3, Mean (n=15)",25.58 fIA/L × min
same,Peak Concentration Value,"Cycle 3, Mean (n=15)",0.05 fIA/L
same,Rate Clearance,"Cycle 3, Mean (n=15)",9.65 L/h
same,Vc,"Cycle 3, Mean (n=15)",16.40 L
same,Vd,"Cycle 3, Mean (n=15)",141.49 L
same,AUC Total,[1],26.16 fIA/L x min and 29.32 fIA/L x min and 20.20 fIA/L x min (2×) and 36.74 fIA/L x min and 16.57 fIA/L x min and 19.01 fIA/L x min and 17.88 fIA/L x min and 23.21 fIA/L x min and 13.86 fIA/L x min and 24.55 fIA/L x min and 22.70 fIA/L x min and 39.62 fIA/L x min and 28.52 fIA/L x min and 36.09 fIA/L x min and 29.33 fIA/L x min
same,Clearance Rate,[1],7.68 L/h and 6.78 L/h and 7.81 L/h and 4.95 L/h and 14.60 L/h and 18.27 L/h and 9.22 L/h and 8.52 L/h and 25.73 L/h and 11.43 L/h and 13.59 L/h and 3.34 L/h and 5.74 L/h and 3.01 L/h and 4.07 L/h
same,Distribution Half-Life,[1],2.07 h and 1.69 h and 1.88 h and 2.30 h and 2.06 h and 1.64 h and 2.55 h and 2.28 h and 1.85 h and 2.11 h and 3.17 h and 2.61 h and 2.22 h
same,Elimination Half-Life,[1],12.51 h and 11.70 h and 10.92 h and 9.33 h and 9.92 h and 8.16 h and 9.10 h and 9.11 h and 10.32 h and 9.75 h and 9.63 h and 10.67 h and 18.37 h and 14.16 h
same,Peak Concentration Value,[1],0.04 fIA/L (7×) and 0.05 fIA/L (4×) and 0.06 fIA/L (2×) and 0.07 fIA/L and 0.03 fIA/L (2×)
same,Time of Peak Concentration,[1],60.00 min (5×) and 68.00 min and 61.00 min (3×) and 66.00 min (2×) and 55.00 min (2×) and 65.00 min and 59.00 min (2×)
same,Vc,[1],11.98 L and 11.38 L and 21.49 L (2×) and 10.66 L and 16.42 L and 16.53 L and 24.53 L and 17.80 L and 20.07 L and 13.50 L and 14.30 L and 15.13 L and 18.12 L and 16.40 L and 17.66 L
same,Vd,[1],129.70 L and 106.80 L and 105.05 L and 70.92 L and 171.89 L and 239.78 L and 121.21 L and 126.73 L and 361.81 L and 158.71 L and 191.15 L and 51.46 L and 152.16 L and 61.59 L and 73.36 L
same,AUC Total,"Cycle 3, individual patients",29.32 fIA/L × min and 20.20 fIA/L × min (2×) and 36.74 fIA/L × min and 16.57 fIA/L × min and 19.01 fIA/L × min and 17.88 fIA/L × min and 23.21 fIA/L × min and 13.86 fIA/L × min and 24.55 fIA/L × min and 22.70 fIA/L × min and 39.62 fIA/L × min and 28.52 fIA/L × min and 36.09 fIA/L × min and 29.33 fIA/L × min and 26.16 fIA/L × min
same,Peak Concentration Value,"Cycle 3, individual patients",0.06 fIA/L (2×) and 0.04 fIA/L (7×) and 0.07 fIA/L and 0.03 fIA/L (2×) and 0.05 fIA/L (4×)
same,Vc,"Cycle 3, individual patients",11.38 L and 21.49 L (2×) and 10.66 L and 16.42 L and 16.53 L and 24.53 L and 17.80 L and 20.07 L and 13.50 L and 14.30 L and 15.13 L and 18.12 L and 16.40 L and 17.66 L and 11.98 L
same,Vd,"Cycle 3, individual patients",106.80 L and 105.05 L and 70.92 L and 171.89 L and 239.78 L and 121.21 L and 126.73 L and 361.81 L and 158.71 L and 191.15 L and 51.46 L and 152.16 L and 61.59 L and 73.36 L and 129.70 L
same,AUC Total,"Cycle 3, max",39.62 fIA/L × min
same,Peak Concentration Value,"Cycle 3, max",0.07 fIA/L
same,Rate Clearance,"Cycle 3, max",25.73 L/h
same,Vc,"Cycle 3, max",24.53 L
same,Vd,"Cycle 3, max",361.81 L
same,AUC Total,"Cycle 3, median",24.55 fIA/L × min
same,Peak Concentration Value,"Cycle 3, median",0.04 fIA/L
same,Rate Clearance,"Cycle 3, median",7.81 L/h
same,Vc,"Cycle 3, median",16.42 L
same,Vd,"Cycle 3, median",126.73 L
same,AUC Total,"Cycle 3, min",13.86 fIA/L × min
same,Peak Concentration Value,"Cycle 3, min",0.03 fIA/L
same,Rate Clearance,"Cycle 3, min",3.01 L/h
same,Vc,"Cycle 3, min",10.66 L
same,Vd,"Cycle 3, min",51.46 L
same,"AUC Total, Mean","Cycle 3, n = 15",25.58 fIA/L x min
same,"AUC Total, max","Cycle 3, n = 15",39.62 fIA/L x min
same,"AUC Total, median","Cycle 3, n = 15",24.55 fIA/L x min
same,"AUC Total, min","Cycle 3, n = 15",13.86 fIA/L x min
same,"Clearance Rate, Mean","Cycle 3, n = 15",9.65 L/h
same,"Clearance Rate, max","Cycle 3, n = 15",25.73 L/h
same,"Clearance Rate, median","Cycle 3, n = 15",7.81 L/h
same,"Clearance Rate, min","Cycle 3, n = 15",3.01 L/h
same,"Distribution Half-Life, Mean","Cycle 3, n = 15",2.17 h
same,"Distribution Half-Life, max","Cycle 3, n = 15",3.17 h
same,"Distribution Half-Life, median","Cycle 3, n = 15",2.07 h
same,"Distribution Half-Life, min","Cycle 3, n = 15",1.64 h
same,"Elimination Half-Life, Mean","Cycle 3, n = 15",10.89 h
same,"Elimination Half-Life, max","Cycle 3, n = 15",18.37 h
same,"Elimination Half-Life, median","Cycle 3, n = 15",9.92 h
same,"Elimination Half-Life, min","Cycle 3, n = 15",8.16 h
same,"Peak Concentration Value, Mean","Cycle 3, n = 15",0.05 fIA/L
same,"Peak Concentration Value, max","Cycle 3, n = 15",0.07 fIA/L
same,"Peak Concentration Value, median","Cycle 3, n = 15",0.04 fIA/L
same,"Peak Concentration Value, min","Cycle 3, n = 15",0.03 fIA/L
same,Time of Peak Concentration,"Cycle 3, n = 15",55.00 min
same,"Time of Peak Concentration, Mean","Cycle 3, n = 15",60.67 min
same,"Time of Peak Concentration, max","Cycle 3, n = 15",68.00 min
same,"Time of Peak Concentration, median","Cycle 3, n = 15",60.00 min
same,"Vc, Mean","Cycle 3, n = 15",16.40 L
same,"Vc, max","Cycle 3, n = 15",24.53 L
same,"Vc, median","Cycle 3, n = 15",16.42 L
same,"Vc, min","Cycle 3, n = 15",10.66 L
same,"Vd, Mean","Cycle 3, n = 15",141.49 L
same,"Vd, max","Cycle 3, n = 15",361.81 L
same,"Vd, median","Cycle 3, n = 15",126.73 L
same,"Vd, min","Cycle 3, n = 15",51.46 L
